Test results from article PMC11054303, “Design and Synthesis of Novel N-Benzylidene Derivatives of 3-Amino-4-imino-3,5-dihydro-4H-chromeno[2,3-d]pyrimidine under Microwave, In Silico ADME Predictions, In Vitro Antitumoral Activities and In Vivo Toxicity” (Pharmaceuticals, 2024).

What was measured:
[1] = system: Huh7 D12; assay: Antiproliferative assay, Huh7 D12; type: cell-based, human; details: for IC50: Homo sapiens, Huh-7D12, 48 h incubation, average of three assays, standard error ± 0.5 μM; for Selectivity Index (SI) Huh7 D12: SI = IC50 fibroblasts/IC50 on Huh7 D12
Experimental: (§1) The potential antiproliferative activity of these novel 3-(N-phenylmethyliden)amino-4-imino-3,5-dihydro-4H-chromeno[2,3-d]pyrimidine 10(a-i) and 10-(N-phenylmethyliden)amino-11-imino-11H-naphto[1′,2′:5,6]pyrano[2,3-d]pyrimidine 10(j-l) was evaluated in a panel of eight tumoral cell lines and in diploid skin fibroblasts used as normal cell lines for control. For these antitumor assays, chosen cell lines represent diverse types of human cancer, which are, respectively, human hepatocellular carcinoma (Huh7 D12), human colon adenocarcinoma (Caco2), human breast adenocarcinoma (MDA-MB231), MDA-MB468 for human breast carcinoma which correspond to the Triple Negative Breast Cancer (TNBC), human colon carcinoma (HCT116), PC3 as cell line initiated from bone metastasis of grade IV prostatic adenocarcinoma from a person, MCF7 as breast cancer line isolated from a person and PANC1, as human pancreatic cancer cell line. The potential antiproliferative activity was preliminarily evaluated in vitro at a 25 μM single dose.
(§2) The IC50 was calculated from the full dose-response curve and used as a parameter for the antiproliferative activity of the new compounds.
(§3) Skin diploid fibroblastic cells were provided by BIOPREDIC International Company (Rennes, France). Huh-7D12 (Ref ECACC: 01042712), Caco2 (Ref ECACC: 86010202), MDA-MB-231 (Ref ECACC: 92020424), MDA-MB-468, HCT-116 (Ref ECACC: 91091005), PC3 (Ref ECACC: 90112714), and MCF7 cell lines were obtained from the ECACC collection. PANC1 cell lines, a generous gift of LBAI Inserm 1227 (Brest, France). Cells were grown according to ECACC recommendations in DMEM for Huh-D12, MDA-MB-231, MDA-MB-468 and fibroblast, in EMEM for Caco2, in McCoy’s for HCT-116 and RPMI for PC3 at 37 °C and 5% CO2. All culture media with 10% of FBS, 1% of penicillin-streptomycin and 2 mM glutamine.
(§4) Chemicals were solubilized in DMSO at a concentration of 10 mM (stock solution) and diluted in a culture medium to the desired final concentrations. […] The toxicity test of the chemicals on these cells was as follows: 2 × 10^3 cells for HCT-116 cells or 4 × 10^3 for the other cells were seeded in 96-multi-well plates in triplicate and left for 24 h for attachment, spreading and growing. Then, cells were exposed for 48 h to increasing concentrations of chemicals, ranging from 0.1 μM to 25 μM, in a final volume of 120 μL of culture medium. After 48 h of treatment, cells were washed in PBS and fixed in a cooled 90% ethanol/5% acetic acid solution for 20 min. The nuclei were stained with Hoechst 3342 (B2261 Merck Sigma-Aldrich) and counted. Image acquisition and analysis were performed using automated imaging analysis with a Cellomics Arrayscan VTI/HCS Reader (Thermo/Scientific, Waltham, MA, USA). The survival percentages were calculated as the percentage of cell number after chemical treatment over cell number after DMSO treatment. The IC50 was graphically determined.

[2] = Antiproliferative assay, Caco2; type: cell-based, human; details: human, Caco-2; SI = IC50 fibroblasts/IC50 on Caco2; read-out: Selectivity Index (SI) Caco2
Experimental: as §1, §2, §3, §4

[3] = system: Caco2; assay: Antiproliferative assay, Caco2; type: cell-based, human; details: Homo sapiens, Caco-2; 48 h incubation; average of three assays, standard error ± 0.5 μM
Experimental: as §1, §2, §3, §4

[4] = system: MDA MB231; assay: Antiproliferative assay, MDA MB231; type: cell-based, human; details: for IC50: Homo sapiens, MDA-MB-231, 48 h incubation, average of three assays, standard error ± 0.5 μM; for Selectivity Index (SI) MDA MB231: SI = IC50 fibroblasts/IC50 on MDA MB231
Experimental: as §1, §2, §3, §4

[5] = system: MDA MB468; assay: Antiproliferative assay, MDA MB468; type: cell-based, human; details: for IC50: Homo sapiens, MDA-MB-468, 48 h incubation, average of three assays, standard error ± 0.5 μM; for Selectivity Index (SI) MDA MB468: SI = IC50 fibroblasts/IC50 on MDA MB468
Experimental: as §1, §2, §3, §4

[6] = system: HCT 116; assay: Antiproliferative assay, HCT 116; type: cell-based, human; details: for IC50: Homo sapiens, HCT-116, 48 h incubation, average of three assays, standard error ± 0.5 μM; for Selectivity Index (SI) HCT 116: SI = IC50 fibroblasts/IC50 on HCT 116
Experimental: as §1, §2, §3, §4

[7] = system: PC3; assay: Antiproliferative assay, PC3; type: cell-based, human; details: for IC50: Homo sapiens, PC-3, 48 h incubation, average of three assays, standard error ± 0.5 μM; for Selectivity Index (SI) PC3: SI = IC50 fibroblasts/IC50 on PC3
Experimental: as §1, §2, §3, §4

[8] = system: MCF7; assay: Antiproliferative assay, MCF7; type: cell-based, human; details: for IC50: Homo sapiens, MCF7, 48 h incubation, average of three assays, standard error ± 0.5 μM; for Selectivity Index (SI) MCF7: SI = IC50 fibroblasts/IC50 on MCF7
Experimental: as §1, §2, §3, §4

[9] = system: Fibroblasts; assay: Antiproliferative assay, diploid skin fibroblasts (normal cells); type: cell-based; details: for IC50: Fibroblast, 48 h incubation, average of three assays, standard error ± 0.5 μM
Experimental: as §1, §2, §3, §4

[10] = system: tumor cell lines; assay: Antiproliferative assay, panel of tumoral cell lines; type: cell-based; details: Homo sapiens, 48 h, summary over tumoral cell lines of Table 3, 48 h; read-out: IC50 on tumor cell lines (span over the panel)
Experimental: as §1, §2, §3, §4

[11] = system: PANC1; assay: Antiproliferative assay, PANC1; type: cell-based, human; details: for IC50: Homo sapiens, PANC-1, 48 h incubation, average of three assays, standard error ± 0.5 μM; for Selectivity Index (SI) PANC1: SI = IC50 fibroblasts/IC50 on PANC1
Experimental: as §1, §2, §3, §4

[12] = system: zebrafish Danio rerio embryos; assay: Zebrafish embryo toxicity assay (Zebratox, FET)
Experimental: Fertilized eggs at 24–48 h post-fertilization (hpf) were selected and transferred to a 96-well plate (1 embryo/well). […] DMSO (0.6%) was used as vehicle control for the test compounds. The exposure duration continued up to 72 hpf because it is the endpoint of embryonic development [41]. The dead embryos were eliminated, and the fertilized eggs were imaged at 0, 24, 48 and 72 hpf.
Eggs were collected 2 h post-fertilization (hpf) and kept in glass Petri dishes containing water for subsequent examination under a binocular microscope to confirm fertilization. […] Chemical treatments were performed by adding DMSO alone (negative control), or test molecule. These experiments were performed in four technical replicates.
The experiments were performed using a Zeiss inverted fluorescent microscope (Observer Z1). The zebrafish toxicological test (Zebratox) was realized as follows: the 24 h post-fertilization embryos were arrayed by hand with one embryo per well in black-walled 96-well microplates for fluorescence assays (Perkin Elmer, Waltham, MA, USA). The embryos were treated before hatching from 0 to 72 h post-fertilization. The 20 mM DMSO stock chemicals were diluted in fish water and added to the wells at final concentrations from 0.0 2µM to 5 μM. The negative control (0.25% DMSO) was added to each replicate plate. The experiments were realized in triplicate in three independent plates. […] The zebrafish fertilized eggs were provided by the ImPACcell-Biosit Zebrafish facilities (Rennes, France).

Compound | IC50 [1] | IC50 [3] | IC50 [6] | IC50 [7] | IC50 [8] | IC50 [10] | IC50 [11] | Selectivity Index (SI) Huh7 D12 [1] | selectivity ratio at 48 h [2] | IC50 [4] | Selectivity Index (SI) MDA MB231 [4] | IC50 [5] | Selectivity Index (SI) MDA MB468 [5] | Selectivity Index (SI) HCT 116 [6] | Selectivity Index (SI) PC3 [7] | Selectivity Index (SI) MCF7 [8] | IC50 [9] | effect on fibroblasts (healthy skin cell), in words [9] | Selectivity Index (SI) PANC1 [11] | also measured
CCN(CC)c1ccc2c(c1)Oc1ncn(/N=C/c3ccccc3O)c(=N)c1C2 [10b] | > 25 µM | > 25 µM | > 25 µM | > 25 µM | > 25 µM | – | > 25 µM | – | – | > 25 µM | – | > 25 µM | – | – | – | – | > 25 µM | – | – | –
CCN(CC)c1ccc2c(c1)Oc1ncn(/N=C/c3ccc(N(C)C)cc3)c(=N)c1C2 [10a] | > 25 µM | > 25 µM | > 25 µM | > 25 µM | > 25 µM | – | > 25 µM | – | – | > 25 µM | – | > 25 µM | – | – | – | – | > 25 µM | – | – | –
C#Cc1cccc(Nc2ncnc3cc(OCCOC)c(OCCOC)cc23)c1 [erlotinib, reference compound] | – | – | – | – | – | – | – | – | – | – | – | – | – | – | – | – | – | – | – | toxicity on zebrafish embryos ([12]; 1 μM dose, 72 hpf): no toxicity; hatching of the embryos ([12]; treatment for 48 and 72 hpf): complete hatching
CCN(CC)c1ccc2c(c1)Oc1ncn(/N=C/c3ccccc3)c(=N)c1C2 [10c] | > 25 µM | > 25 µM | > 25 µM | > 25 µM | > 25 µM | – | > 25 µM | – | – | > 25 µM | – | > 25 µM | – | – | – | – | > 25 µM | – | – | –
CN(C)c1ccc(/C=N/n2cnc3c(c2=N)Cc2ccccc2O3)cc1 [10d, (3E) 3-N-(4-Dimethylaminophenylmethylidene)amino-4-imino-3,5-dihydro-4H-chromeno[2,3-d]pyrimidine] | 11 µM | 10 µM | 11 µM | 11 µM | 11 µM | 1 to 25 µM | 17 µM | 1.27 | 1.4 | 11 µM | 1.27 | 11 µM | 1.27 | 1.27 | 1.27 | 1.27 | 14 µM | cytotoxic on fibroblasts | 0.82 | –

Second part, led by results:

IC50 [1] | IC50 [3] | IC50 [6] | IC50 [7] | IC50 [8] | IC50 [10] | IC50 [11] | Compound | Selectivity Index (SI) Huh7 D12 [1] | selectivity ratio at 48 h [2] | IC50 [4] | Selectivity Index (SI) MDA MB231 [4] | IC50 [5] | Selectivity Index (SI) MDA MB468 [5] | Selectivity Index (SI) HCT 116 [6] | Selectivity Index (SI) PC3 [7] | Selectivity Index (SI) MCF7 [8] | IC50 [9] | effect on fibroblasts (healthy skin cell), in words [9] | Selectivity Index (SI) PANC1 [11] | also measured
0.06 µM | 0.03 µM | 0.07 µM | 0.07 µM | 0.09 µM | – | – | COc1cccc2c1C(=O)c1c(O)c3c(c(O)c1C2=O)C[C@@](O)(C(=O)CO)C[C@@H]3O[C@H]1C[C@H](N)[C@H](O)[C@H](C)O1 [Doxorubicin, reference compound] | 0.16 | 0.33 | 0.02 µM | 0.50 | 0.03 µM | 0.33 | 0.14 | 0.14 | 0.11 | 0.01 µM | – | – | –
6 µM | 10 µM | 24 µM | 16 µM | 10 µM | 1 to 25 µM | – | COc1cccc2c1Oc1ncn(/N=C/c3ccc(N(C)C)cc3)c(=N)c1C2 [10g, (3E) 3-N-(4-Dimethylaminophenylmethylidene)amino-4-imino-9-methoxy-3,5-dihydro-4H-chromeno[2,3-d]pyrimidine] | 1.83 | 1.1 | > 25 µM | < 0.44 | 18 µM | 0.61 | 0.46 | 0.69 | 1.1 | 11 µM | cytotoxic on fibroblasts | – | –
1.7 µM | 2 µM | 0.3 µM | 0.15 µM | 1.7 µM | 1 to 25 µM | 2.2 µM | N=c1c2c(ncn1/N=C/c1ccccc1O)Oc1ccccc1C2 [10e, (3E) 3-N-(2-Hydroxyphenylmethylidene)amino-4-imino-3,5-dihydro-4H-chromeno[2,3-d]pyrimidine] | 0.94 | 0.8 | 1.5 µM | 1.07 | 2.5 µM | 0.64 | 5.33 | 10.67 | 0.94 | 1.6 µM | cytotoxic on fibroblasts | 0.73 | –
1.5 µM | 1.2 µM | 0.6 µM | 0.4 µM | 1.2 µM | 1 to 25 µM | 1.6 µM | N=c1c2c(ncn1/N=C/c1ccccc1O)Oc1ccc3ccccc3c1C2 [10k, (10E) 10-N-(2-Hydroxyphenylmethylidene)amino-11-imino-11H-naphto[1′,2′:5,6]pyrano[2,3-d]pyrimidine] | 1 | 1.25 | 1.1 µM | 1.34 | 1.8 µM | 0.83 | 2.5 | 3.75 | 1.25 | 1.5 µM | cytotoxic on fibroblasts | 0.94 | –
6 µM | 10 µM | 24 µM | 16 µM | 10 µM | 1 to 25 µM | – | CN(C)c1ccc(/C=N/n2cnc3c(c2=N)Cc2c(ccc4ccccc24)O3)cc1 [10j, (10E) 10-N-(4-Dimethylaminophenylmethylidene)amino-11-imino-11H-naphto[1′,2′:5,6]pyrano[2,3-d]pyrimidine] | 1.83 | 1.1 | > 25 µM | < 0.44 | 18 µM | 0.61 | 0.46 | 0.69 | 1.1 | 11 µM | cytotoxic on fibroblasts | – | –
